Experimental data from PubChem BioAssay (NCI).
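Tested at 5 concentrations; 48 h exposure; 96-well plates; endpoints linearly interpolated, else capped at highest concentration. TGI: concentration producing complete growth inhibition.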

Columns and labels:
Assay in all cases: NCI-60 cell line screen, 48 h
HL-60(TB) leukemia = tested on: HL-60(TB) leukemia
SW-620 colon = tested on: SW-620 colon
A549 NSCLC = tested on: A549 NSCLC
M19-MEL melanoma = tested on: M19-MEL melanoma
HCT-116 colon = tested on: HCT-116 colon
EKVX NSCLC = tested on: EKVX NSCLC
HOP-92 NSCLC = tested on: HOP-92 NSCLC
NCI-H460 lung = tested on: NCI-H460 lung
MALME-3M melanoma = tested on: MALME-3M melanoma
UACC-62 melanoma = tested on: UACC-62 melanoma
CAKI-1 renal = tested on: CAKI-1 renal
IGROV1 ovarian = tested on: IGROV1 ovarian
HT29 colon = tested on: HT29 colon
SF-295 CNS = tested on: SF-295 CNS
OVCAR-5 ovarian = tested on: OVCAR-5 ovarian
K-562 leukemia = tested on: K-562 leukemia
OVCAR-8 ovarian = tested on: OVCAR-8 ovarian
SK-MEL-2 melanoma = tested on: SK-MEL-2 melanoma
SNB-78 CNS = tested on: SNB-78 CNS
UO-31 renal = tested on: UO-31 renal
SF-268 CNS = tested on: SF-268 CNS
SK-MEL-5 melanoma = tested on: SK-MEL-5 melanoma
HCC-2998 colon = tested on: HCC-2998 colon
TK-10 renal = tested on: TK-10 renal
CCRF-CEM leukemia = tested on: CCRF-CEM leukemia
KM20L2 colon = tested on: KM20L2 colon
786-0 renal = tested on: 786-0 renal
SF-539 CNS = tested on: SF-539 CNS
HOP-18 NSCLC = tested on: HOP-18 NSCLC
NCI-H522 lung = tested on: NCI-H522 lung
SNB-19 CNS = tested on: SNB-19 CNS
DLD-1 colon = tested on: DLD-1 colon
RXF 393 renal = tested on: RXF 393 renal
NCI-H226 lung = tested on: NCI-H226 lung
DMS 114 small cell lung = tested on: DMS 114 small cell lung
SN12C renal = tested on: SN12C renal
RPMI-8226 leukemia = tested on: RPMI-8226 leukemia
HOP-62 NSCLC = tested on: HOP-62 NSCLC
XF 498 CNS = tested on: XF 498 CNS
HCT-15 colon = tested on: HCT-15 colon
MOLT-4 leukemia = tested on: MOLT-4 leukemia
LXFL 529 NSCLC = tested on: LXFL 529 NSCLC
SNB-75 CNS = tested on: SNB-75 CNS
U251 CNS = tested on: U251 CNS
M14 melanoma = tested on: M14 melanoma
UACC-257 melanoma = tested on: UACC-257 melanoma
A498 renal = tested on: A498 renal
ACHN renal = tested on: ACHN renal
OVCAR-4 ovarian = tested on: OVCAR-4 ovarian
SK-MEL-28 melanoma = tested on: SK-MEL-28 melanoma
SK-OV-3 ovarian = tested on: SK-OV-3 ovarian
LOX IMVI melanoma = tested on: LOX IMVI melanoma
KM12 colon = tested on: KM12 colon
NCI-H23 lung = tested on: NCI-H23 lung
DMS 273 small cell lung = tested on: DMS 273 small cell lung
SR leukemia = tested on: SR leukemia
OVCAR-3 ovarian = tested on: OVCAR-3 ovarian
COLO 205 colon = tested on: COLO 205 colon

CN(C)c1nc(=Nc2ccc3c(c2)OCO3)ss1
TGI (HL-60(TB) leukemia): 60 µM | TGI (SW-620 colon): > 100 µM | TGI (A549 NSCLC): > 100 µM | TGI (M19-MEL melanoma): > 100 µM | TGI (HCT-116 colon): > 100 µM | TGI (EKVX NSCLC): > 100 µM | TGI (HOP-92 NSCLC): > 100 µM | TGI (NCI-H460 lung): > 100 µM | TGI (MALME-3M melanoma): > 100 µM | TGI (UACC-62 melanoma): > 100 µM | TGI (CAKI-1 renal): > 100 µM | TGI (IGROV1 ovarian): > 100 µM | TGI (HT29 colon): > 100 µM | TGI (SF-295 CNS): > 100 µM | TGI (OVCAR-5 ovarian): > 100 µM | TGI (K-562 leukemia): > 100 µM | TGI (OVCAR-8 ovarian): > 100 µM | TGI (SK-MEL-2 melanoma): > 100 µM | TGI (SNB-78 CNS): > 100 µM | TGI (UO-31 renal): 83.3 µM | TGI (SF-268 CNS): > 100 µM | TGI (SK-MEL-5 melanoma): > 100 µM | TGI (HCC-2998 colon): > 100 µM | TGI (TK-10 renal): > 100 µM | TGI (CCRF-CEM leukemia): > 100 µM | TGI (KM20L2 colon): > 100 µM | TGI (786-0 renal): > 100 µM | TGI (SF-539 CNS): > 100 µM | TGI (HOP-18 NSCLC): > 100 µM | TGI (NCI-H522 lung): > 100 µM | TGI (SNB-19 CNS): > 100 µM | TGI (DLD-1 colon): > 100 µM | TGI (RXF 393 renal): > 100 µM | TGI (NCI-H226 lung): > 100 µM | TGI (DMS 114 small cell lung): > 100 µM | TGI (SN12C renal): > 100 µM | TGI (RPMI-8226 leukemia): 57.8 µM | TGI (HOP-62 NSCLC): > 100 µM | TGI (XF 498 CNS): > 100 µM | TGI (HCT-15 colon): > 100 µM | TGI (MOLT-4 leukemia): 78.4 µM | TGI (LXFL 529 NSCLC): > 100 µM | TGI (SNB-75 CNS): 66 µM | TGI (U251 CNS): > 100 µM | TGI (M14 melanoma): > 100 µM | TGI (UACC-257 melanoma): > 100 µM | TGI (A498 renal): > 100 µM | TGI (ACHN renal): > 100 µM | TGI (OVCAR-4 ovarian): > 100 µM | TGI (SK-MEL-28 melanoma): > 100 µM | TGI (SK-OV-3 ovarian): > 100 µM | TGI (LOX IMVI melanoma): > 100 µM | TGI (KM12 colon): > 100 µM | TGI (NCI-H23 lung): > 100 µM | TGI (DMS 273 small cell lung): > 100 µM

CCN1C(=O)N(C)C(O)c2c1nc1ccccn1c2=O (stereo not given)
TGI (HL-60(TB) leukemia): 90.7 µM | TGI (SW-620 colon): > 100 µM | TGI (A549 NSCLC): 98.6 µM | TGI (M19-MEL melanoma): 83.6 µM | TGI (HCT-116 colon): 84.1 µM | TGI (EKVX NSCLC): 53 µM | TGI (HOP-92 NSCLC): 62.5 µM | TGI (NCI-H460 lung): 42.8 µM | TGI (MALME-3M melanoma): > 100 µM | TGI (UACC-62 melanoma): 1.98 µM | TGI (SR leukemia): > 100 µM | TGI (IGROV1 ovarian): > 100 µM | TGI (HT29 colon): 70.7 µM | TGI (SF-295 CNS): > 100 µM | TGI (K-562 leukemia): > 100 µM | TGI (OVCAR-8 ovarian): 46.4 µM | TGI (SK-MEL-2 melanoma): 62.8 µM | TGI (OVCAR-3 ovarian): 63.9 µM | TGI (SNB-78 CNS): 82.5 µM | TGI (UO-31 renal): > 100 µM | TGI (SF-268 CNS): 68.8 µM | TGI (HCC-2998 colon): 43.6 µM | TGI (TK-10 renal): 60.4 µM | TGI (CCRF-CEM leukemia): 95.5 µM | TGI (KM20L2 colon): 59.8 µM | TGI (786-0 renal): 98.4 µM | TGI (SF-539 CNS): 54.3 µM | TGI (HOP-18 NSCLC): 65.3 µM | TGI (NCI-H522 lung): 65.6 µM | TGI (SNB-19 CNS): > 100 µM | TGI (DLD-1 colon): > 100 µM | TGI (RXF 393 renal): 59 µM | TGI (NCI-H226 lung): > 100 µM | TGI (DMS 114 small cell lung): > 100 µM | TGI (SN12C renal): 64 µM | TGI (COLO 205 colon): 37.6 µM | TGI (RPMI-8226 leukemia): 78.6 µM | TGI (HOP-62 NSCLC): 98.6 µM | TGI (XF 498 CNS): 83.4 µM | TGI (HCT-15 colon): > 100 µM | TGI (MOLT-4 leukemia): > 100 µM | TGI (LXFL 529 NSCLC): > 100 µM | TGI (SNB-75 CNS): 56.7 µM | TGI (U251 CNS): > 100 µM | TGI (M14 melanoma): > 100 µM | TGI (UACC-257 melanoma): > 100 µM | TGI (A498 renal): 66.2 µM | TGI (ACHN renal): > 100 µM | TGI (OVCAR-4 ovarian): > 100 µM | TGI (SK-MEL-28 melanoma): 77.6 µM | TGI (SK-OV-3 ovarian): 59.4 µM | TGI (LOX IMVI melanoma): 33.2 µM | TGI (KM12 colon): > 100 µM | TGI (NCI-H23 lung): 63.6 µM | TGI (DMS 273 small cell lung): 42.4 µM
